The target in data set [1] is T1, P2X purinoceptor 7 (Homo sapiens, UniProt Q99572).
T1 sequence (Q99572 whole entry): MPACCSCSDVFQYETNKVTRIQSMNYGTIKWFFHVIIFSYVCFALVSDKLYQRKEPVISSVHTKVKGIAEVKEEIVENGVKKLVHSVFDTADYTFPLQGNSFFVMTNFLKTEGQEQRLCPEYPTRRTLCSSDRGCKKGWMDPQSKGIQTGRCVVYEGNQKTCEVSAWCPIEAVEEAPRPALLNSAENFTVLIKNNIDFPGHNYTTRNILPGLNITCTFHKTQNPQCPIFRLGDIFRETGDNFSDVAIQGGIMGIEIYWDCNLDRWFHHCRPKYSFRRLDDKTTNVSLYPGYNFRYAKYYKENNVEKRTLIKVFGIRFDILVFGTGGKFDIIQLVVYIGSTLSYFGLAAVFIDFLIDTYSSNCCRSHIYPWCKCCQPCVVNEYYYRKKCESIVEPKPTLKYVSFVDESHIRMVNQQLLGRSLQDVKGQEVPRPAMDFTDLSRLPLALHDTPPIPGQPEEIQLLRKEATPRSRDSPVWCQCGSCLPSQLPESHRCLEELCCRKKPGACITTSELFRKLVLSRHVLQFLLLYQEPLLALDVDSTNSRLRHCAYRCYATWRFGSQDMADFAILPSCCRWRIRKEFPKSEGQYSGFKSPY
The experiment in a line: Inhibition of P2X7 (unknown origin) assessed as reduction in IL-1 beta release.

In data set [2] the target is T1, P2X purinoceptor 7. The experiment in a line: Inhibition of P2X7 in human THP-1cells assessed as reduction in YO-PRO-1 iodide dye uptake measured after 24 hrs by fluorescence based assay. In kind it is cell-based.
For data set [3], the target named is T1, P2X purinoceptor 7. Description: Antagonist activity at P2X7 receptor in human THP-1 cells assessed as reduction in ATP induced IL-1 beta release. In kind it is cell-based.
The target of data set [4] is T2, P2X purinoceptor 7 (Mus musculus, UniProt Q9Z1M0).
T2 sequence (Q9Z1M0 whole entry): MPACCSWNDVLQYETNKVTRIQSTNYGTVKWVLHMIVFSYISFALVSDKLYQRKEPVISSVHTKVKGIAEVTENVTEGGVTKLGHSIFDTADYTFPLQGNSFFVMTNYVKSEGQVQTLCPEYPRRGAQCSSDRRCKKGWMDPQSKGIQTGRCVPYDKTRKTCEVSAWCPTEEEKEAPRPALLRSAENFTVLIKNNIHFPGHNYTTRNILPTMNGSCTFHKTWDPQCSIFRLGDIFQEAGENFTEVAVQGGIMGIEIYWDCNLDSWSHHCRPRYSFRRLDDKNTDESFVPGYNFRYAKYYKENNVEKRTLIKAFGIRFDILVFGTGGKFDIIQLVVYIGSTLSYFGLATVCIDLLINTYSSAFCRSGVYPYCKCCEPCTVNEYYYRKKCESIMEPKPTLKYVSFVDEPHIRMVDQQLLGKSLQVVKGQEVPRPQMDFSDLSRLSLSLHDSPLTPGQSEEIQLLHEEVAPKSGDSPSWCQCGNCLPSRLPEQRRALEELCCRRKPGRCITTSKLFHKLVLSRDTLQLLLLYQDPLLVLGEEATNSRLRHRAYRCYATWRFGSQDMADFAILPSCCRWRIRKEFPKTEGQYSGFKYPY
Description: Antagonist activity at P2X7 receptor in mouse Peritoneal macrophage cells assessed as reduction in ATP induced IL-1 beta release. In kind it is cell-based.

Data set [5] concerns the target T3, P2X purinoceptor 7 (Mus musculus) (UniProt Q9Z1M0).
T3 sequence (whole entry): T2 sequence (Q9Z1M0 whole entry)
The experiment in a line: Antagonist activity at P2X7 receptor in mouse Peritoneal macrophage cells assessed as ATP induced dye uptake at 10 uM relative to control. In kind it is cell-based. The conditions noted are these: filed as antagonist.

Data set [6] has as its target T2, P2X purinoceptor 7. The experiment in a line: Inhibition of mouse P2X7 receptor expressed in xenopus laevis Oocyte cells by TEVC analysis. In kind it is cell-based.
Data set [7] deals with T1, P2X purinoceptor 7. Description: Inhibition of human P2X7 receptor in HEK cells by fluorescence based calcium influx assay. The data set is classed as cell-based.
The target in data set [8] is T1, P2X purinoceptor 7. The experiment in a line: Inhibition of human P2X7 receptor expressed in HEK293 cells incubated for 5 mins followed by Bz-ATP addition measured after 3 mins by fluorescence based assay. The data set is classed as cell-based.
Data set [9] deals with T2, P2X purinoceptor 7. Description: Inhibition of mouse P2X7 receptor expressed in HEK293 cells incubated for 5 mins followed by Bz-ATP addition measured after 3 mins by fluorescence based assay. The data set is classed as cell-based.
A short description of data set [10]: Half life in Han Wistar rat plasma at 1 mg/kg, iv measured upto 6 hrs by liquid chromatography tandem mass spectrometry. The data set is classed as ADME, organism-based.
The nature of data set [11]: Half life in Han Wistar rat Brain at 1 mg/kg, iv measured upto 6 hrs by liquid chromatography tandem mass spectrometry. In kind it is ADME, organism-based.
Data set [12] is described as follows: AUC(0 to 6 hrs) in Han Wistar rat plasma at 1 mg/kg, iv measured upto 6 hrs by liquid chromatography tandem mass spectrometry. In kind it is ADME, organism-based. On the set-up: time < 6 hrs, dose 1 mg/kg, route iv.
Data set [13] can be described thus: AUC(0 to 6 hrs) in Han Wistar rat Brain at 1 mg/kg, iv measured upto 6 hrs by liquid chromatography tandem mass spectrometry. The data set is classed as ADME, organism-based. Also on record: time < 6 hrs, dose 1 mg/kg, route iv.
The target of data set [14] is T1, P2X purinoceptor 7. Description: Inhibition of human P2X7 receptor transfected in HEK293 cells by calcium influx assay. The data set is classed as cell-based.
Data set [15] deals with T4, P2X purinoceptor 7 (Rattus norvegicus, UniProt Q64663).
T4 sequence (Q64663 whole entry): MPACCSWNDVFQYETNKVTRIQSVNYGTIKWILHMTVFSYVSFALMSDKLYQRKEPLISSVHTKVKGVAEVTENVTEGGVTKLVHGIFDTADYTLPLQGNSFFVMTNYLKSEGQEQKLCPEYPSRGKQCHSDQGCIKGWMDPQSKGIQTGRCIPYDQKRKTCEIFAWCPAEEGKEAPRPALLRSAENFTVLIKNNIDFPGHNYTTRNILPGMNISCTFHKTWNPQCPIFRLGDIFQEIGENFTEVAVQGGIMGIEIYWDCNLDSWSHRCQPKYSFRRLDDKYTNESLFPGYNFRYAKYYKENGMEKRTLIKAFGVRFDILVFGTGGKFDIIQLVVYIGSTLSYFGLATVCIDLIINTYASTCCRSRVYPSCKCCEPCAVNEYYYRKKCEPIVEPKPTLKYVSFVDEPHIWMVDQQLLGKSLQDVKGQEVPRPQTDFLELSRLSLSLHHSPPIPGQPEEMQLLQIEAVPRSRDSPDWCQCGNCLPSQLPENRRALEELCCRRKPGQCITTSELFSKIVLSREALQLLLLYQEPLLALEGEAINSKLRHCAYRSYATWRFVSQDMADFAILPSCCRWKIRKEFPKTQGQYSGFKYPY
The experiment in a line: Inhibition of rat P2X7 receptor transfected in HEK293 cells by calcium influx assay. In kind it is cell-based.

Data set [16] deals with T1, P2X purinoceptor 7. Description: Antagonist activity at recombinant human P2X7 receptor expressed in 1321N1 cells measured after 30 mins by fluorescence based calcium flux assay. The data set is classed as cell-based. On the technique in general: Calcium assays in cells follow changes in intracellular calcium, usually with a dye or a luminescent sensor.
A short description of data set [17]: Half life in human liver microsomes. The data set is classed as ADME, Microsome. (Liver microsomes are a subcellular fraction often used to study metabolism.)
Data set [18] concerns the target T1, P2X purinoceptor 7. Description: Antagonist activity at P2X7 in human THP-1 cells. The data set is classed as cell-based.
Another data set deals with Mus musculus. The experiment in a line: Antiinflammatory activity in ATP induced mouse paw edema model. The data set is classed as functional. The following applies: read-out: ID50 (the source's name).
Data set [19] concerns the target T1, P2X purinoceptor 7. The experiment in a line: Antagonist activity at human P2X7 receptor expressed in 1321N1 cells by FLIPR assay. The data set is classed as cell-based.

Broadly, the IC50 is the concentration that inhibits the measured activity by half. Broadly, the inhibition is the change of the read-out against control, counted positive when it falls. As usually defined, the half-life is the time needed for the level to fall by half in the phase considered. As a reminder, the AUC(0-t) is the area under the concentration-time curve up to a stated or last time point. Higher therefore signals more exposure.

Regarding `C[C@@H](CO)n1ccc2c(NC(=O)CC34CC5CC(CC(C5)C3)C4)cccc2c1=O`, the IC50 on P2X purinoceptor 7 [1] amounted to 0.00015 µM; at P2X purinoceptor 7 [2], 0.107 µM.

With `CC1=C(Cn2cc(COCc3ccco3)nn2)C(=O)c2ccccc2C1=O`, the IC50 on P2X purinoceptor 7 [3] is 184 µM; at P2X purinoceptor 7 [4], 160 µM. For the same molecule, the inhibition in [5] was 60%.

`O=C(NCC1(c2ccc(CO[N+](=O)[O-])cc2)CCCCC1)c1ccccc1Cl` came in with an IC50 on P2X purinoceptor 7 [6] of 0.39 µM.

With `CC1=C(C(c2ccccc2)n2cc(COCc3ccco3)nn2)C(=O)c2ccccc2C1=O` (stereo not drawn), the IC50 at P2X purinoceptor 7 [3] is 140 µM; at P2X purinoceptor 7 [4], 145 µM. Also, the inhibition in data set [5] was found to be 60%.

Regarding `COc1ccc(Cl)c(C(=O)NCC23CC4CC(CC(F)(C4)C2)C3)c1`, the IC50 at P2X purinoceptor 7 [7] was determined as 0.017 µM.

With `Cc1ccc(C2(CNC(=O)c3cc(CO[N+](=O)[O-])ccc3Cl)CCCCC2)cc1`, the IC50 against P2X purinoceptor 7 [6] came to 1.43 µM.

With `O=C(NCC(c1scnc1C(F)F)N1CCC(Oc2cccc(Cl)n2)CC1)c1c(F)cccc1Cl` (stereo not drawn), the IC50 on P2X purinoceptor 7 [8] turned out to be 0.0111 µM; at P2X purinoceptor 7 [9], 0.0134 µM.

As to `COc1ccc(Cl)c(C(=O)NCC23CC4(F)CC(F)(CC(F)(C4)C2)C3)c1`, the figures for the half-life in data set [10] and in data set [11] were 103 min and 75.6 min, respectively. The AUC(0-t) at 6 h is 385 ng·h/mL in data set [12] and 380 ng·h/mL in data set [13].

`O=C(NCc1cccc(C(F)(F)F)c1Cl)[C@@]1(O)CCC(O)c2ncccc21` (stereo partly drawn): the half-inhibitory concentration (IC50) on P2X purinoceptor 7 [14] was 0.101 µM; at P2X purinoceptor 7 [15], below 1 µM.

Take `O=C(OCC1c2ncn(-c3ccccc3)c2CCN1C(=O)c1cccc(C(F)(F)F)c1Cl)c1cccc(C(F)(F)F)c1Cl` (stereo not drawn): the IC50 at P2X purinoceptor 7 [16] was determined as 0.0031 µM.

Consider `CC1=C(C(c2ccc([N+](=O)[O-])cc2)n2cc(COCc3ccco3)nn2)C(=O)c2ccccc2C1=O` (stereo not drawn), for which the IC50 on P2X purinoceptor 7 [3] was found to be 183 µM; at P2X purinoceptor 7 [4], 187 µM. The inhibition in data set [5] was determined as 60%.

In data set [17], `Cc1ccc2c(=O)n(C(C)CO)ccc2c1NC(=O)Cc1ccc(C(F)(F)F)c(F)c1` (stereo not drawn) gave a half-life of 55.8 min. The 50% inhibitory concentration (IC50) at P2X purinoceptor 7 [18] amounted to 0.0093 µM.

In the case of `CC1=C(C(c2ccc(Cl)cc2)n2cc(COCc3ccco3)nn2)C(=O)c2ccccc2C1=O` (stereo not drawn), the half-maximal inhibitory concentration (IC50) on P2X purinoceptor 7 [3] is 1.1 µM; at P2X purinoceptor 7 [4] it was 1.5 µM. Also, in data set [5], the inhibition stood at 60%. Moreover, the ED50 in the data set on Mus musculus is 16 mg/kg.

For `COc1ccc(Cl)c(C(=O)NCC23CC4CC(CC(C4)C2)C3)c1`, the half-life is 28.2 min in [10] and 9.6 min in data set [11]. Moreover, the exposure AUC(0-t) at 6 h in data set [12] was found to be 186 ng·h/mL; in data set [13], 221 ng·h/mL.

Take `C[C@H](CO)n1ccc2c(NC(=O)CC34CC5CC(CC(C5)C3)C4)cccc2c1=O`: the half-maximal inhibitory concentration (IC50) on P2X purinoceptor 7 [1] came to 0.001 µM; on P2X purinoceptor 7 [2], 0.52 µM.

Turning to `O=C1CCC(C(=O)NCC2CCCCCCC2)c2cccnc21` (stereo not drawn), the 50% inhibitory concentration (IC50) on P2X purinoceptor 7 [14] and on P2X purinoceptor 7 [15] was above 1 µM in each case.

Molecule `Cc1ccc(N2CCCC2=O)cc1Nc1nc(=O)cnn1Cc1cc(F)c(F)c(F)c1` showed a half-inhibitory concentration (IC50) at P2X purinoceptor 7 [19] of 0.0057 µM.

The values above are taken from ChEMBL document CHEMBL5360537, “From lead to clinic: A review of the structural design of P2X7R antagonists” (Eur J Med Chem, 2023).
